Data from patent US7417156B2, “Orally active, antimalarial, anticancer, artemisinin-derived trioxane dimers” (Johns Hopkins University, priority 2002, dated 2008).

Tests used:
[1] = tested on: IGROVI; test: NCI 60 cell line panel screen (SRB); format: cell-based, human
[2] = tested on: HT29; test: NCI 60 cell line panel screen (SRB); format: cell-based, human
[3] = tested on: TK-10; test: NCI 60 cell line panel screen (SRB); format: cell-based, human; conditions: Renal Cancer, TK-10
[4] = tested on: NCI-H322M; format: cell-based
[5] = tested on: MOLT-4
Protocol: Growth Inhibition. […] The screening assay is performed on 96-well microtitre plates. Relatively high initial inoculation densities are used, in order to permit measurement of “time-zero” values and to enhance the screen's ability to detect and provide some differentiation between growth inhibition and cytotoxic response parameters. […] The inoculated microtitre plates are pre-incubated for 24 hours at 37° C. prior to drug additions. The five drug dilutions tested routinely range from 10^−4 to 10^−8 molar. Higher or lower concentration ranges may be selected on a non-routine basis if appropriate solubility and/or prior biological information or other screening data so dictate. Duplicate wells are prepared for all concentrations, (concentration is often denoted by placing brackets around a number); “time-zero” and “no drug” controls are also provided for each test. The minimum amount of compound required for a one-time evaluation in the routine screen can be calculated from the knowledge that each test requires a total of approximately 40 ml (0.04 liter) of cell culture medium containing the highest desired drug concentration. […] After a 48 hour incubation (37° C.) with the test compound, the cells are fixed in situ to the bottoms of the microtitre wells by addition of 50 μl of either 50% trichloroacetic acid (for adherent cell lines) or 80% trichloroacetic acid (for settled cell suspension lines), followed by incubation for 60 minutes at 4° C. The cellular protein in each well is assayed using a sulforhodamine B (SRB) stain procedure. Briefly, after discarding the supernatants, the microtitre plates are washed 5 times with deionized water and air-dried. […] Unbound SRB is removed by washing 5 times with 1% acetic acid. […] SRB is a bright pink anionic dye which, in dilute acetic acid, binds electrostatically to the basic amino acids of TCA-fixed cells. Cryopreserved master stocks of all the lines are maintained, and cultures used for screening are replaced from the master stock after no more than twenty passages in the screening laboratory. The cell line panel consists of 60 lines, organized into nine, disease-related subpanels including leukemia, non-small-cell lung cancer, colon, CNS, melanoma, ovarian, renal, prostate and breast cancers.
At this value the increase from time tzero, in the number or mass of cells in the test well is only 50% as much as the corresponding increase in the control well during this period of the experiment, see Table III. A drug effect of this intensity is interpreted as primary growth inhibition.
At this value the number or mass of cells in the well at the end of the experiment equals the number or mass of cells in the well at time tzero, see Table IV. A drug effect of this intensity is regarded as cytostasis.
At this value, the number or mass of cells in the test well at the end of the experiment is half that at time tzero, see Table V. This is interpreted as cytotoxicity.
Dose response curves, shown in the above mentioned Figures, are obtained by exposing various cancer cell lines to compounds having a known concentration ([log10M]), as discussed in detail above, and then plotting the percentage growth of each cell line for each concentration. […] Percentage growth is determined by dividing the number or mass of cells in the test well by the number or mass of cells in a control well. […] As discussed previously, the five drug dilutions routinely tested range from 10^−4 to […].

[6] = tested on: OVCAR-5; test: NCI 60 cell line panel screen (SRB); format: cell-based, human
[7] = tested on: MDA-MB231/ATCC; test: NCI 60 cell line panel screen (SRB); format: cell-based, human
[8] = tested on: SF-539; test: NCI 60 cell line panel screen (SRB); format: cell-based, human
[9] = tested on: MDA-MB-435; test: NCI 60 cell line panel screen (SRB); format: cell-based, human; conditions: Breast Cancer, MDA-MB-435
[10] = tested on: UACC-257; test: NCI 60 cell line panel screen (SRB); format: cell-based, human
[11] = tested on: T-47D; test: NCI 60 cell line panel screen (SRB); format: cell-based, human
[12] = tested on: UO-31; test: NCI 60 cell line panel screen (SRB); format: cell-based, human; conditions: Renal Cancer, UO-31
[13] = tested on: NCI-H522; test: NCI 60 cell line panel screen (SRB); format: cell-based, human
[14] = tested on: 786-0; test: NCI 60 cell line panel screen (SRB); format: cell-based, human

CC(=O)O[C@H]1C(=O)[C@@]2(C)[C@H]([C@H](OC(=O)c3ccccc3)[C@]3(O)C[C@H](OC(=O)[C@H](O)[C@@H](NC(=O)c4ccccc4)c4ccccc4)C(C)=C1C3(C)C)[C@]1(OC(C)=O)CO[C@@H]1C[C@@H]2O [Paclitaxel, paclitaxel, reference compound] was tested. Which Log10LC50 ([1]; IGROVI (Ovarian Cancer), LC50: PG=−50) did it give?
Its Log10LC50 is greater than −4.00 log10M.

What about the Log10TGI50 ([1]; IGROVI (Ovarian Cancer), TGI: PG=0) of the same compound?
Its Log10TGI50 is −4.19 log10M.

What about the Log10GI50 ([1]; Ovarian Cancer, IGROVI) of the same compound?
Its Log10GI50 is −8.61.

And the Log10GI50 ([2]; Colon Cancer, HT29)?
The Log10GI50 was less than −13.00.

What about the Log10LC50 ([2]; HT29 (Colon Cancer), LC50: PG=−50) of the same compound?
The Log10LC50 was −4.39 log10M.

And the Log10GI50 [3]?
The Log10GI50 was −7.89.

What about the Log10LC50 ([4]; NCI-H322M (Non-Small Cell Lung Cancer), LC50: PG=−50) of the same compound?
Its Log10LC50 is greater than −4.00 log10M.

And the Log10TGI50 ([4]; NCI-H322M (Non-Small Cell Lung Cancer), TGI: PG=0)?
The Log10TGI50 was −4.46 log10M.

What about the Log10GI50 ([4]; Non-Small Cell Lung Cancer, NCI-H322M) of the same compound?
The Log10GI50 was −10.12.

And the Log10GI50 ([5]; Leukemia, MOLT-4)?
Its Log10GI50 is −11.07.

And the Log10LC50 ([5]; MOLT-4 (Leukemia), LC50: PG=−50)?
The Log10LC50 was greater than −4.00 log10M.

What about the Log10TGI50 ([5]; MOLT-4 (Leukemia), TGI: PG=0) of the same compound?
The Log10TGI50 was greater than −4.00 log10M.

And the “drug concentration for primary growth inhibition (percentage growth +50)” value ([5]; MOLT-4, from dose response curves FIGS. 7a-7i)?
The value was 10^−11 molar.

What about the “concentration for cytotoxicity (percentage growth −50)” value ([5]; human, 48 h) of the same compound?
The value was “greater than 10^−4 M”.

And the Log10LC50 ([6]; OVCAR-5 (Ovarian Cancer), LC50: PG=−50)?
The Log10LC50 was greater than −4.00 log10M.

What about the Log10TGI50 ([6]; OVCAR-5 (Ovarian Cancer), TGI: PG=0) of the same compound?
Its Log10TGI50 is −4.92 log10M.

What about the Log10GI50 ([6]; Ovarian Cancer, OVCAR-5) of the same compound?
Its Log10GI50 is −9.38.

And the Log10GI50 ([7]; Breast Cancer, MDA-MB231/ATCC)?
The Log10GI50 was −8.54.

What about the Log10TGI50 ([7]; MDA-MB231/ATCC (Breast Cancer), TGI: PG=0) of the same compound?
Its Log10TGI50 is −4.84 log10M.

And the Log10GI50 ([8]; CNS Cancer, SF-539)?
The Log10GI50 was −11.09.

What about the Log10LC50 ([8]; SF-539 (CNS Cancer), LC50: PG=−50) of the same compound?
The Log10LC50 was greater than −4.00 log10M.

What about the Log10GI50 [9] of the same compound?
Its Log10GI50 is less than −13.00.

What about the Log10GI50 ([10]; Melanoma, UACC-257) of the same compound?
The Log10GI50 was −10.30.

What about the Log10LC50 ([10]; UACC-257 (Melanoma), LC50: PG=−50) of the same compound?
Its Log10LC50 is −4.03 log10M.

What about the Log10TGI50 ([10]; UACC-257 (Melanoma), TGI: PG=0) of the same compound?
The Log10TGI50 was −4.52 log10M.

What about the Log10GI50 ([11]; Breast Cancer, T-47D) of the same compound?
Its Log10GI50 is −9.81.

What about the Log10LC50 ([11]; T-47D (Breast Cancer), LC50: PG=−50) of the same compound?
The Log10LC50 was greater than −4.00 log10M.

What about the Log10GI50 [12] of the same compound?
Its Log10GI50 is −6.09.

And the Log10TGI50 ([13]; NCI-H522 (Non-Small Cell Lung Cancer), TGI: PG=0)?
Its Log10TGI50 is −11.20 log10M.

What about the Log10LC50 ([13]; NCI-H-522 (Non-Small Cell Lung Cancer), LC50: PG=−50) of the same compound?
Its Log10LC50 is greater than −4.00 log10M.

What about the Log10GI50 ([13]; Non-Small Cell Lung Cancer, NCI-H522) of the same compound?
Its Log10GI50 is less than −13.00.

And the Log10LC50 ([14]; 786-0 (Renal Cancer), LC50: PG=−50)?
Its Log10LC50 is greater than −4.00 log10M.

And the Log10TGI50 ([14]; 786-0 (Renal Cancer), TGI: PG=0)?
Its Log10TGI50 is greater than −4.00 log10M.

What about the Log10GI50 ([14]; Renal Cancer, 786-0) of the same compound?
The Log10GI50 was −8.01.
